Experimental data as given in PubChem BioAssay (NCI).
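GI50 marks 50% less growth. At the TGI there is no net growth.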

Assays:
Experiment in all cases: NCI anticancer screen, dose series, 384-well format
786-0 renal = tested on: 786-0 renal
A498 renal = tested on: A498 renal
A549 NSCLC = tested on: A549 NSCLC
ACHN renal = tested on: ACHN renal
BT-549 breast = tested on: BT-549 breast
CAKI-1 renal = tested on: CAKI-1 renal
CCRF-CEM leukemia = tested on: CCRF-CEM leukemia
COLO 205 colon = tested on: COLO 205 colon
DU-145 prostate = tested on: DU-145 prostate
HCC-2998 colon = tested on: HCC-2998 colon
HCT-116 colon = tested on: HCT-116 colon
HCT-15 colon = tested on: HCT-15 colon
HL-60(TB) leukemia = tested on: HL-60(TB) leukemia
HOP-62 NSCLC = tested on: HOP-62 NSCLC
HOP-92 NSCLC = tested on: HOP-92 NSCLC
HT29 colon = tested on: HT29 colon
IGROV1 ovarian = tested on: IGROV1 ovarian
K-562 leukemia = tested on: K-562 leukemia
KM12 colon = tested on: KM12 colon
LOX IMVI melanoma = tested on: LOX IMVI melanoma
M14 melanoma = tested on: M14 melanoma
MALME-3M melanoma = tested on: MALME-3M melanoma
MCF7 breast = tested on: MCF7 breast
MDA-MB-231 breast = tested on: MDA-MB-231 breast
MDA-MB-435 melanoma = tested on: MDA-MB-435 melanoma
MDA-MB-468 breast = tested on: MDA-MB-468 breast
MOLT-4 leukemia = tested on: MOLT-4 leukemia
NCI-H226 lung = tested on: NCI-H226 lung
NCI-H23 lung = tested on: NCI-H23 lung
NCI-H322M lung = tested on: NCI-H322M lung
NCI-H460 NSCLC = tested on: NCI-H460 NSCLC
NCI-H522 lung = tested on: NCI-H522 lung
NCI/ADR-RES ovarian = tested on: NCI/ADR-RES ovarian
OVCAR-3 ovarian = tested on: OVCAR-3 ovarian
OVCAR-4 ovarian = tested on: OVCAR-4 ovarian
OVCAR-5 ovarian = tested on: OVCAR-5 ovarian
OVCAR-8 ovarian = tested on: OVCAR-8 ovarian
PC-3 prostate = tested on: PC-3 prostate
RPMI-8226 leukemia = tested on: RPMI-8226 leukemia
RXF 393 renal = tested on: RXF 393 renal
SF-268 CNS = tested on: SF-268 CNS
SF-295 CNS = tested on: SF-295 CNS
SF-539 CNS = tested on: SF-539 CNS
SK-MEL-2 melanoma = tested on: SK-MEL-2 melanoma
SK-MEL-28 melanoma = tested on: SK-MEL-28 melanoma
SK-MEL-5 melanoma = tested on: SK-MEL-5 melanoma
SK-OV-3 ovarian = tested on: SK-OV-3 ovarian
SN12C renal = tested on: SN12C renal
SR leukemia = tested on: SR leukemia
SW-620 colon = tested on: SW-620 colon
T-47D breast = tested on: T-47D breast
TK-10 renal = tested on: TK-10 renal
U251 glioblastoma = tested on: U251 glioblastoma
UACC-257 melanoma = tested on: UACC-257 melanoma
UACC-62 melanoma = tested on: UACC-62 melanoma
UO-31 renal = tested on: UO-31 renal

`CS[C@@]1(C(=O)Nc2ccc3[nH]nc(-c4ccc(OC(C)C)nc4)c3c2)CCN(CC(=O)N2CC=C(c3ccc(-c4ncn(C)n4)cc3)CC2)C1` showed a GI50 ([…]-0 renal) of 1.77 µM, a TGI (786-0 renal) greater than 100 µM and a GI50 (A498 renal) of 2.52 µM. It also gave a TGI (A498 renal) greater than 100 µM, a GI50 (A549 NSCLC) of 0.302 µM and a TGI (A549 NSCLC) greater than 100 µM. The GI50 (ACHN renal) was 2.25 µM, the TGI (ACHN renal) was greater than 100 µM and the GI50 (BT-549 breast) was 2.03 µM. For the same molecule, the TGI (BT-549 breast) was greater than 100 µM, the GI50 (CAKI-1 renal) was 0.273 µM and the TGI (CAKI-1 renal) was greater than 100 µM. For the same molecule, the GI50 (CCRF-CEM leukemia) was 5.12 µM, the TGI (CCRF-CEM leukemia) was greater than 100 µM and the GI50 (COLO 205 colon) was 0.02 µM. For the same molecule, the TGI (COLO 205 colon) was 0.194 µM, the GI50 (DU-145 prostate) was 61.6 µM and the TGI (DU-145 prostate) was greater than 100 µM. It also gave a GI50 (HCC-2998 colon) of 0.0242 µM, a TGI (HCC-2998 colon) of 0.222 µM and a GI50 (HCT-116 colon) of 0.122 µM. The TGI (HCT-116 colon) was 2.39 µM, the GI50 (HCT-15 colon) was 2.82 µM and the TGI (HCT-15 colon) was greater than 100 µM. It also gave a GI50 (HL-60(TB) leukemia) of 0.0437 µM, a TGI (HL-60(TB) leukemia) of 1.35 µM and a GI50 (HOP-62 NSCLC) of 0.476 µM. For the same molecule, the TGI (HOP-62 NSCLC) was greater than 100 µM, the GI50 (HOP-92 NSCLC) was 0.189 µM and the TGI (HOP-92 NSCLC) was 0.631 µM. It also gave a GI50 (HT29 colon) of 0.0431 µM, a TGI (HT29 colon) greater than 100 µM and a GI50 (IGROV1 ovarian) of 0.514 µM. The TGI (IGROV1 ovarian) was greater than 100 µM, the GI50 (K-562 leukemia) was 0.819 µM and the TGI (K-562 leukemia) was greater than 100 µM. For the same molecule, the GI50 (KM12 colon) was 0.297 µM, the TGI (KM12 colon) was greater than 100 µM and the GI50 (LOX IMVI melanoma) was 0.0904 µM. For the same molecule, the TGI (LOX IMVI melanoma) was 0.267 µM, the GI50 (M14 melanoma) was 0.0125 µM and the TGI (M14 melanoma) was 0.109 µM. The TGI (MALME-3M melanoma) was 0.0221 µM, the GI50 (MCF7 breast) was greater than 100 µM and the TGI (MCF7 breast) was greater than 100 µM. The GI50 (MDA-MB-231 breast) was 0.373 µM, the TGI (MDA-MB-231 breast) was 34.3 µM and the GI50 (MDA-MB-435 melanoma) was 0.0963 µM. It also gave a TGI (MDA-MB-435 melanoma) greater than 100 µM, a GI50 (MDA-MB-468 breast) of 0.907 µM and a TGI (MDA-MB-468 breast) of 7.33 µM. It also gave a GI50 (MOLT-4 leukemia) of 2.56 µM, a TGI (MOLT-4 leukemia) of 8.65 µM and a GI50 (NCI-H226 lung) of 0.595 µM. For the same molecule, the TGI (NCI-H226 lung) was 21.6 µM, the GI50 (NCI-H23 lung) was 0.0171 µM and the TGI (NCI-H23 lung) was 0.136 µM. The GI50 (NCI-H322M lung) was 0.438 µM, the TGI (NCI-H322M lung) was greater than 100 µM and the GI50 (NCI-H460 NSCLC) was 0.884 µM. For the same molecule, the TGI (NCI-H460 NSCLC) was greater than 100 µM, the GI50 (NCI-H522 lung) was 7.97 µM and the TGI (NCI-H522 lung) was greater than 100 µM. The GI50 (NCI/ADR-RES ovarian) was 3.77 µM, the TGI (NCI/ADR-RES ovarian) was greater than 100 µM and the GI50 (OVCAR-3 ovarian) was 5.37 µM. It also gave a TGI (OVCAR-3 ovarian) greater than 100 µM, a GI50 (OVCAR-4 ovarian) of 1.8 µM and a TGI (OVCAR-4 ovarian) greater than 100 µM. The GI50 (OVCAR-5 ovarian) was 0.108 µM, the TGI (OVCAR-5 ovarian) was greater than 100 µM and the GI50 (OVCAR-8 ovarian) was 5.37 µM. For the same molecule, the TGI (OVCAR-8 ovarian) was greater than 100 µM, the GI50 (PC-3 prostate) was 18.8 µM and the TGI (PC-3 prostate) was greater than 100 µM. The GI50 (RPMI-8226 leukemia) was 0.536 µM, the TGI (RPMI-8226 leukemia) was 2.44 µM and the GI50 (RXF 393 renal) was 0.354 µM. For the same molecule, the TGI (RXF 393 renal) was 2.2 µM, the GI50 (SF-268 CNS) was greater than 100 µM and the TGI (SF-268 CNS) was greater than 100 µM. For the same molecule, the GI50 (SF-295 CNS) was 12.8 µM, the TGI (SF-295 CNS) was greater than 100 µM and the GI50 (SF-539 CNS) was 1.36 µM. For the same molecule, the TGI (SF-539 CNS) was 47.8 µM, the GI50 (SK-MEL-2 melanoma) was 0.0386 µM and the TGI (SK-MEL-2 melanoma) was 0.207 µM. It also gave a TGI (SK-MEL-28 melanoma) of 0.0583 µM, a GI50 (SK-MEL-5 melanoma) of 0.0589 µM and a TGI (SK-MEL-5 melanoma) of 1.73 µM. For the same molecule, the GI50 (SK-OV-3 ovarian) was 17.2 µM, the TGI (SK-OV-3 ovarian) was greater than 100 µM and the GI50 (SN12C renal) was 3.37 µM. It also gave a TGI (SN12C renal) greater than 100 µM, a GI50 (SR leukemia) of 0.375 µM and a TGI (SR leukemia) of 4 µM. It also gave a GI50 (SW-620 colon) of 0.112 µM, a TGI (SW-620 colon) greater than 100 µM and a GI50 (T-47D breast) of 5.69 µM. The TGI (T-47D breast) was greater than 100 µM, the GI50 (TK-10 renal) was 0.561 µM and the TGI (TK-10 renal) was greater than 100 µM. The GI50 (U251 glioblastoma) was 1.53 µM, the TGI (U251 glioblastoma) was greater than 100 µM and the GI50 (UACC-257 melanoma) was 0.0167 µM. The TGI (UACC-257 melanoma) was 0.0976 µM, the GI50 (UACC-62 melanoma) was 0.011 µM and the TGI (UACC-62 melanoma) was 0.215 µM. It also gave a GI50 (UO-31 renal) of 0.81 µM and a TGI (UO-31 renal) greater than 100 µM.
